In patent publication US9617256B2 (priority 2007, dated 2017):
Converted amounts (≈) assume the structure as drawn. Where two headings read alike, the source gives them in different places.

What was measured:
AECO001 (ATCC25922) = experiment: MIC broth microdilution, AECO001; assay type: cell-based, E. coli; conditions: Escherichia coli
Method in brief: (§1)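 MICs come from broth microdilution in cation-adjusted Mueller-Hinton broth, final inoculum 3×10^5–7×10^5 CFU/mL, 18-24 hours at 35° C. Levofloxacin and QC strains served as assay controls.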

[1] = system: AECO063 (ATCC25922 bearing an acrAB mutation); experiment: microbe, parasite or virus in culture; assay type: cell-based, E. coli; conditions: Escherichia coli, ATCC25922, read-out: MIC AECO063
Method in brief: as §1

APAE001 (ATCC27853) = experiment: MIC broth microdilution, APAE001; assay type: cell-based, P. aeruginosa; conditions: Pseudomonas aeruginosa, ATCC27853, read-out: MIC APAE001, APAE001 (ATCC27853)
Method in brief: as §1

[2] = system: APAE006 (strain of P. aeruginosa in which all efflux pumps are inactivated); experiment: microbe, parasite or virus in culture; assay type: cell-based; conditions: Pseudomonas aeruginosa, read-out: MIC APAE006, APAE006, all efflux pumps inactivated
Method in brief: (§2)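 (ambient air) in cation-adjusted MHB; inoculum from 0.5 McFarland suspensions, final 3×10^5–7×10^5 CFU/mL; 2-fold serial drug dilutions per CLSI. APAE006: P. aeruginosa with all efflux pumps inactivated.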

[3] = system: APAE006 in the presence of 8 micrograms per milliliter of polymyxin B nonapeptide; assay type: cell-based, P. aeruginosa; conditions: APAE006 with 8 micrograms per milliliter polymyxin B nonapeptide
Method in brief: as §2

[4] = system: AABA1060 (clinical isolate of Acinetobacter baumannii); experiment: MIC broth microdilution, AABA1060; assay type: cell-based; conditions: Acinetobacter baumannii, read-out: MIC AABA1060
Method in brief: as §1

[5] = system: ASAU001 (laboratory strain of S. aureus, ATCC29213); experiment: MIC broth microdilution, ASAU001; assay type: cell-based; conditions: Staphylococcus aureus, ATCC29213, read-out: MIC ASAU001
Method in brief: as §1

[6] = ATCC25922, read-out: MIC AECO001
[7] = ATCC25922, read-out: MIC AECO001 HSA AGP

SMILES	MIC (AECO001 (ATCC25922); [6])	MIC (AECO001 (ATCC25922); [7])	MIC [1]	MIC (APAE001 (ATCC27853))	MIC [2]	MIC APAE006 + PMBN [3]	MIC [4]	MIC [5]
O=C(NC(C(=O)NO)C1(O)CC1)c1ccc(C#CC#CC2CC2)cc1 (stereo not drawn) [Example 94-1, 4-(cyclopropylbuta-1,3-diynyl)-N-(2-(hydroxyamino)-1-(1-hydroxycyclopropyl)-2-oxoethyl)benzamide]	< 2 µg/mL	2 to 16 µg/mL (≈ 5.91 to 47.3 µM)	< 2 µg/mL	< 2 µg/mL	< 2 µg/mL	A (MIC's of 2.0 μg/mL or less = A)	2 to 16 µg/mL (≈ 5.91 to 47.3 µM)	16 to 64 µg/mL (≈ 47.3 to 189 µM)
CC(C)(N)[C@H](NC(=O)c1ccc(C#C/C=C/c2ccc(CNC3CC3)cc2)cc1)C(=O)NO [Example 102-6]	< 2 µg/mL	2 to 16 µg/mL (≈ 4.48 to 35.8 µM)	< 2 µg/mL	< 2 µg/mL	< 2 µg/mL	A (MIC's of 2.0 μg/mL or less = A)	2 to 16 µg/mL (≈ 4.48 to 35.8 µM)	16 to 64 µg/mL (≈ 35.8 to 143 µM)
CC(C)(N)[C@H](NC(=O)c1ccc(C#C/C=C/c2ccccc2)cc1)C(=O)NO [Example 104-5]	< 2 µg/mL	< 2 µg/mL	< 2 µg/mL	2 to 16 µg/mL (≈ 5.3 to 42.4 µM)	< 2 µg/mL	A (MIC's of 2.0 μg/mL or less = A)	< 2 µg/mL	2 to 16 µg/mL (≈ 5.3 to 42.4 µM)
C[C@@H](O)[C@H](NC(=O)c1ccc(C#C/C=C/c2ccncc2)cc1)C(=O)NO [Example 106-1, N-((1S,2R)-2-Hydroxy-1-hydroxycarbamoyl-propyl)-4-((E)-4-pyridin-4-yl-but-3-en-1-ynyl)-benzamide]	< 2 µg/mL	2 to 16 µg/mL (≈ 5.47 to 43.8 µM)	< 2 µg/mL	16 to 64 µg/mL (≈ 43.8 to 175 µM)	< 2 µg/mL	A (MIC's of 2.0 μg/mL or less = A)	16 to 64 µg/mL (≈ 43.8 to 175 µM)	16 to 64 µg/mL (≈ 43.8 to 175 µM)
CC(C)(O)[C@H](NC(=O)c1ccc(C#C/C=C/c2ccncc2)cc1)C(=O)NO [Example 106-2]	< 2 µg/mL	2 to 16 µg/mL (≈ 5.27 to 42.2 µM)	< 2 µg/mL	2 to 16 µg/mL (≈ 5.27 to 42.2 µM)	< 2 µg/mL	A (MIC's of 2.0 μg/mL or less = A)	2 to 16 µg/mL (≈ 5.27 to 42.2 µM)	16 to 64 µg/mL (≈ 42.2 to 169 µM)
C[C@@H](N)[C@H](NC(=O)c1ccc(C#C/C=C/c2ccncc2)cc1)C(=O)NO [Example 106-3]	< 2 µg/mL	16 to 64 µg/mL (≈ 43.9 to 176 µM)	< 2 µg/mL	< 2 µg/mL	< 2 µg/mL	A (MIC's of 2.0 μg/mL or less = A)	16 to 64 µg/mL (≈ 43.9 to 176 µM)	16 to 64 µg/mL (≈ 43.9 to 176 µM)
C[C@@H](N)[C@H](NC(=O)c1ccc(C#C/C=C/c2cccnc2)cc1)C(=O)NO [Example 106-4]	2 to 16 µg/mL (≈ 5.49 to 43.9 µM)	16 to 64 µg/mL (≈ 43.9 to 176 µM)	< 2 µg/mL	2 to 16 µg/mL (≈ 5.49 to 43.9 µM)	< 2 µg/mL	A (MIC's of 2.0 μg/mL or less = A)	16 to 64 µg/mL (≈ 43.9 to 176 µM)	16 to 64 µg/mL (≈ 43.9 to 176 µM)
CC(C)(O)[C@H](NC(=O)c1ccc(C#C/C=C/c2cccnc2)cc1)C(=O)NO [Example 106-5]	< 2 µg/mL	2 to 16 µg/mL (≈ 5.27 to 42.2 µM)	< 2 µg/mL	2 to 16 µg/mL (≈ 5.27 to 42.2 µM)	< 2 µg/mL	A (MIC's of 2.0 μg/mL or less = A)	2 to 16 µg/mL (≈ 5.27 to 42.2 µM)	16 to 64 µg/mL (≈ 42.2 to 169 µM)
C[C@@H](N)[C@H](NC(=O)c1ccc(C#C/C=C/c2ccc(F)cc2)cc1)C(=O)NO [Example 106-6]	< 2 µg/mL	16 to 64 µg/mL (≈ 41.9 to 168 µM)	< 2 µg/mL	2 to 16 µg/mL (≈ 5.24 to 41.9 µM)	< 2 µg/mL	A (MIC's of 2.0 μg/mL or less = A)	2 to 16 µg/mL (≈ 5.24 to 41.9 µM)	16 to 64 µg/mL (≈ 41.9 to 168 µM)
CC(C)(O)[C@H](NC(=O)c1ccc(C#C/C=C/c2ccc(F)cc2)cc1)C(=O)NO [Example 106-7]	< 2 µg/mL	2 to 16 µg/mL (≈ 5.05 to 40.4 µM)	< 2 µg/mL	2 to 16 µg/mL (≈ 5.05 to 40.4 µM)	< 2 µg/mL	A (MIC's of 2.0 μg/mL or less = A)	2 to 16 µg/mL (≈ 5.05 to 40.4 µM)	16 to 64 µg/mL (≈ 40.4 to 161 µM)
CC(C)(O)[C@H](NC(=O)c1ccc(C#C/C=C/C2CC2)cc1)C(=O)NO [Example 107-1, 4-((E)-4-Cyclopropyl-but-3-en-1-ynyl)-N—((S)-2-hydroxy-1-hydroxycarbamoyl-2-methyl-propyl)-benzamide]	< 2 µg/mL	2 to 16 µg/mL (≈ 5.84 to 46.7 µM)	< 2 µg/mL	< 2 µg/mL	< 2 µg/mL	A (MIC's of 2.0 μg/mL or less = A)	2 to 16 µg/mL (≈ 5.84 to 46.7 µM)	16 to 64 µg/mL (≈ 46.7 to 187 µM)
C[C@@H](N)[C@H](NC(=O)c1ccc(C#C/C=C/C2CC2)cc1)C(=O)NO [Example 107-2]	< 2 µg/mL	2 to 16 µg/mL (≈ 6.11 to 48.9 µM)	< 2 µg/mL	< 2 µg/mL	< 2 µg/mL	A (MIC's of 2.0 μg/mL or less = A)	< 2 µg/mL	2 to 16 µg/mL (≈ 6.11 to 48.9 µM)
